Tested on: ARPE-19 cells
Assay: Neuronal-like differentiation in ARPE-19 retinal pigment epithelial cell cultures
Type: cell-based, human
Details: 72 hrs incubation, optical microscope
Procedure: ARPE-19 cells (obtained from the American Type Culture Collection, ATCC) were plated in flat bottom 96 well tissue culture microplates (Costar) at a concentration of 2-5×10^3 cells per well (1-2.5×10^4 cells/mL) in a growth medium consisting of DMEM:Ham F-12, 1:1, supplemented with 10% Fetal Bovine Serum, […] glutamine, 100 units/mL penicillin and 100 μg/mL streptomycin. The cells were allowed to adhere to the plate surfaces overnight prior to treatment with polymeric monoterpene.
Each type of polymeric monoterpene was synthesized to provide a 10% solution in grape seed oil, olive oil, Mygliol 810 or Mygliol 812. The preparations were added to the cultures at volumes of 0.5 μl, 2 μl, 5 μl and 20 μl. […]
The cultures were incubated in a 37° C., 5% CO2 incubator for 72 hrs. The medium was then removed, the cultures washed twice with phosphate buffered saline (PBS), fixed with absolute methanol for 10 min and stained with Hemacolor® reagents (Boehringer Mannheim), which stain cells in a manner similar to Giemsa, and may be used in a quantitative cell viability assay (see Keisari, Y. A colorimetric microtiter assay for the quantitation of cytokine activity on adherent cells in tissue culture. J. Immunol. Methods 146, 155-161, 1992). The degree of differentiation was determined by optical microscope. […]

## CC=C(C)C=CC=C(C)C [monomeric alloocimene, 2,6-dimethyl-2,4,6-octatriene]
  induction of neuronal differentiation (morphology): showed no such effects
Listed as monomeric allocimene
  induction of neuronal differentiation (morphology): has no influence on the cells

— patent US20120213727A1, “THERAPEUTIC USES OF OLIGOMERIC AND POLYMERIC MONOTERPENES” (REGENERA PHARMA LTD., priority 2009, published 2012)
